As usually defined, the Kd is the constant that tells how readily two partners part at equilibrium.

SMILES strings stand for the structures. Where two headings read alike, the source gives them in different places.

The text below walks through data of patent publication US11197891B2, “Therapies with lanthionine C-like protein 2 ligands and cells prepared therewith” (Landos Biopharma, Inc., priority 2017, dated 2021).

Assay [1] has as its target T1, LANCL2 (Homo sapiens, UniProt Q9NS86).
T1 sequence (Q9NS86 1-450): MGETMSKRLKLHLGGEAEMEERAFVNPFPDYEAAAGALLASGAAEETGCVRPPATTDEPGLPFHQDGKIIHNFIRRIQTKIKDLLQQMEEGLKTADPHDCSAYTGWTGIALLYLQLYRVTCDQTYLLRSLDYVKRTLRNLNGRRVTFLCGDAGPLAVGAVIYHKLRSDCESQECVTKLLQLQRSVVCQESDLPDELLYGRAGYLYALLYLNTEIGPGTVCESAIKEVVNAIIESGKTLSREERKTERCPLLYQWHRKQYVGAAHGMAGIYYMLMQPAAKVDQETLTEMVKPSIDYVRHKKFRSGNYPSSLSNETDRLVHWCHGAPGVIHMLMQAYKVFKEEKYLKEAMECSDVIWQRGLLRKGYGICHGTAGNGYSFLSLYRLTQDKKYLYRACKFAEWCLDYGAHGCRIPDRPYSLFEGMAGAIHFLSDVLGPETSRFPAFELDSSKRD
Briefly: Surface plasmon resonance (SPR) binding to LANCL2. As to conditions: Tables 1A and 1B; read-out: SPR Affinity to LANCL2 (Kd). For orientation: In SPR one partner is held on a chip, and binding of the other changes the refractive index at the surface.

The test system of the next assay is CD4+ T cells. Briefly: Differentiation of CD4+ T cells into Tregs with metabolic modulators. It counts as cell-based, mice. As to conditions: BT-11 with PS-48 (5 μM), DASA-58 (10 μM) or thapsigargin (10 nM). The method, then: (§1) Spleens from WT and Lancl2−/− mice were excised and crushed to generate a single cell suspension. CD4+ T cell fraction was enriched by negative selection via magnetic sorting with the BD IMag system. Naïve CD4+ T cells were obtained by incubation with a biotinylated CD62L antibody followed by conjugation to streptavidin coated magnetic beads. Naïve cells were incubated for 48 hours within anti-CD3 coated tissue culture plates in complete IMDM media containing all-trans retinoic acid and purified TGF-β to stimulate differentiation into Tregs. […] Metabolic modulators, PS-48 (5 μM), DASA-58 (10 μM), and thapsigargin (10 nM), were added at 0 h. […] Six hours prior to assay, cells were stimulated with PMA and ionomycin. Cells were collected from plate for downstream analysis by flow cytometry, gene expression and metabolic assay.

Assay [2] relates to PBMCs from Crohn's disease donors. As to the kind of experiment: PBMCs isolated from Crohn's disease donors, 24 hour culture. It counts as cell-based, human. The settings on record: presence of thapsigargin. As to the method:
Fresh de-identified whole blood was obtained from commercial vendor. Blood was diluted and purified for PBMC fraction by LeukoSep tube. Remaining red blood cells were lysed by hypotonic lysis. […] For siRNA experiments, cells were first incubated with an OriGene 3-mer LANCL2 siRNA or scrambled control suspended within ViromerGreen transfection reagent for 6 hours. […] Cells were stimulated with PMA and ionomycin six hours prior to assay.
Whole blood was obtained from Crohn's disease patients, clinically categorized as mild to moderate disease.

The next assay has as its system C. difficile. Briefly: C. difficile culture in chopped meat media (anti-microbial properties). As to conditions: 10 ug/mL.
For a further assay, the system named is Mdr1a−/− mice. Briefly: Mdr1a−/− mice with PS-48 injections (in vivo validation of immunometabolic effect). The settings on record: weekly intraperitoneal injections of PS-48. As to the method: (§2) Colons and cells were suspended within assay specific buffer and homogenized for 10 seconds. Homogenate was centrifuged for 10 minutes at 10,000×g. For enzyme activity assays, supernatant was collected and plated. Samples were mixed with enzyme developer and substrate. Colorimetric detection of NADH production was measured using a BioTek μQuant plate reader in combination with Gen5 software. For PEP assay, supernatant was deproteinized using perchloric acid mediated purification. Samples were plated and mixed with a probe, converter, developer mix. PEP concentration was measured by absorbance quantification on plate reader.
To validate the in vitro immunometabolic findings, Mdr1a−/− mice were given weekly intraperitoneal injections of PS-48 or vehicle control. […] Similar patterns were observed within the DSS model.

The next assay has as its system WT Tregs. Briefly: Metabolic analysis (pyruvate kinase, pyruvate dehydrogenase, PEP) in in vitro Tregs. In kind it is cell-based, mice. As to conditions: PS-48 (5 μM). As to the method: as §2
as §1, with “Cells were collected from plate for downstream analysis by flow cytometry, gene expression and metabolic assay.” left out

Assay [3] deals with T1, LANCL2. The settings on record: rows marked REF 18; read-out: SPR Affinity to LANCL2 (Kd); cited from earlier work.

On to `O=C1CCC(O)(/C=C/c2cccc(C(=O)O)n2)CC1` [BT-ABA-13], for which, at LANCL2 [1], the Kd was 4.65 µM.
With `O=C1CCC(O)(/C=C/c2ccc(C(=O)O)o2)CC1` [BT-ABA-25], the dissociation constant Kd on LANCL2 [1] is 177 µM.
Turning to `C/C=C(/C)C(=O)O[C@H]1C(C)=C2[C@H]([C@@H]1OC(=O)CCCCCCC)[C@@](C)(OC(C)=O)C[C@H](OC(=O)CCC)[C@@]1(O)[C@H]2OC(=O)[C@@]1(C)O` [thapsigargin, reference compound], in the assay with CD4+ T cells, the Treg cell differentiation entry is “diminishes the BT-11 induced increase in Treg cell differentiation”. Besides, the “induction of FOXP3+ cells in PBMCs treated with BT-11” value in assay [2] is “prevented the increased induction of FOXP3+ cells”.
Turning to `O=C1CC=C(/C=C/c2ccc(C(=O)O)o2)CC1` [BT-ABA-5a], the Kd at LANCL2 [1] was 11.7 µM.
Take `CN[C@H](CC(C)C)C(=O)N[C@H]1C(=O)N[C@@H](CC(N)=O)C(=O)N[C@H]2C(=O)N[C@H]3C(=O)N[C@H](C(=O)N[C@H](C(=O)O)c4cc(O)cc(O)c4-c4cc3ccc4O)[C@H](O)c3ccc(c(Cl)c3)Oc3cc2cc(c3O[C@@H]2O[C@H](CO)[C@@H](O)[C@H](O)[C@H]2O[C@H]2C[C@](C)(N)[C@H](O)[C@H](C)O2)Oc2ccc(cc2Cl)[C@H]1O` [vancomycin, reference compound]: the “reduction of colony forming units” value with C. difficile is given as 95%. For the same compound, in the assay on C. difficile (from 4 million), the colony forming units result is reported as “under 200,000”.
As to `O=C(c1cccc(-c2nc3ccccc3[nH]2)c1)N1CCN(C(=O)c2cccc(-c3nc4ccccc4[nH]3)c2)CC1` [BT-4], the Kd on LANCL2 [1] stood at 84.3 µM.
With `O=C(O)/C=C(/CCc1ccc(Cl)cc1)c1ccccc1` [PS-48, reference compound], the “BT-11-induced changes across clinical, cellular and metabolic measures” value with Mdr1a−/− mice is recorded as “effectively blocked the BT-11-induced changes”. Besides, in the assay on CD4+ T cells, the Treg cell differentiation entry was “abrogates the increased differentiation of Tregs generated by BT-11”. Further, the “BT-11 induced change in PEP and PDH activity under PS-48” value in the assay with WT Tregs is “abrogated by treatment with PS-48”.
Regarding `O=C1CCC(O)(/C=C/c2cccc(C(=O)O)c2)CC1` [BT-BA-6], at LANCL2 [1], the dissociation constant (Kd) amounted to 163 µM.
As to `O=C(c1cccc(-c2nc3ccccc3[nH]2)n1)N1CCN(C(=O)c2cccc(-c3nc4ccccc4o3)n2)CC1` [BT-15], at LANCL2 [1], the dissociation constant (Kd) amounted to 21.4 µM.
Still for that read-out and setting: as for `O=C(Nc1ccc(NC(=O)c2cccc(-c3nc4ccccc4[nH]3)c2)cc1)c1cccc(-c2nc3ccccc3[nH]2)c1` [BT-6], the figure is 18.2 µM; as for `O=C1CCC(O)(/C=C/c2cc(C(=O)O)ccn2)CC1` [BT-ABA-16], 4.85 µM.
As for `O=C(Nc1cccc(-c2nc3c([nH]2)C=CCC3)c1)c1ccc(C(=O)Nc2cccc(-c3nc4c([nH]3)C=CCC4)c2)cc1` [Compound 61610], the Kd on LANCL2 [3] is 6.2 µM.
For the compound `CC1=CC(=O)CC(C)(C)[C@]1(O)/C=C/C(C)=C\C(=O)O` [ABA, abscisic acid], the Kd at LANCL2 [3] was 2.3 µM.
Regarding `Nc1cccc(S(=O)(=O)N2CCCN(S(=O)(=O)c3ccc4c(c3)OCCO4)CC2)c1` [DASA-58], the Treg cell differentiation entry in the assay on CD4+ T cells was “promotes high level differentiation in both treated and untreated cells”.
